Assay results from US20220226265A1, “METHODS OF CONTROLLING MYOCARDIAL BLOOD FLOW” (UNIVERSITY OF LOUISVILLE RESEARCH FOUNDATION, INC., priority 2021, published 2022).

Experiments:
[1] = system: isolated coronary arteries; assay: L-lactate-induced vasodilation of preconstricted isolated coronary arteries; set-up: species or system mouse
Description: Arterial diameter measurements: Primary and secondary branches of the left anterior descending coronary arteries and third and fourth order branches of mesenteric arteries and were dissected and kept in ice-cold isolation buffer consisting of (in mM): 134 NaCl, 6 KCl, 1 MgCl2, 2 CaCl2, 10 HEPES, 7 D-glucose, pH 7.4. Isolated arteries were used for arterial diameter measurements within 8 h after dissection. Isolated arteries were cleaned of connective tissue and cannulated on glass micropipettes mounted in a linear alignment single vessel myograph chamber (Living Systems Instrumentation, St. Albans, Vt., USA). For some experiments, the vascular endothelium was functionally ablated by passage of air through the lumen (˜30 s) during the cannulation procedure. After cannulation, the chamber was placed on an inverted microscope and arteries were equilibrated at 37° C. and intravascular pressure of 20 mmHg, maintained with a pressure servo control unit (Living Systems Instrumentation, St. Albans, Vt., USA) under continuous perfusion (3-5 ml·min^−1) of physiological saline solution (PSS) consisting of (in mM): 119 NaCl, 4.7 KCl, 1.2 KH2PO4, 1.2 MgCl2, 7 D-glucose, 24 NaHCO3, 2 CaCl2, maintained at pH 7.35-7.45 via aeration with gas mixture containing 5% CO2 and 20% O2 (balanced with N2). Following an equilibration period (45-60 min), lumenal diameter was continuously monitored and recorded with a charge coupled device (CCD) camera and edge detection software (IonOptix, Milton, Mass., USA). […] Bath O2 levels were measured using a dissolved oxygen meter (World Precision Instruments, Sarasota, Fla., USA). At the end of each experiment, the maximum passive diameter was measured in the presence of Ca^2+-free PSS containing the L-type Ca^2+ channel inhibitor nifedipine (1 μM) and adenylyl cyclase activator forskolin (0.5 μM), as described previously. Vasoconstriction is expressed as a decrease in arterial diameter relative to the maximum passive diameter at a given intravascular pressure. […]

[2] = system: isolated mesenteric arteries; assay: Vasodilation of preconstricted isolated mesenteric arteries; set-up: species or system mouse
Description: Arterial diameter measurements: Primary and secondary branches of the left anterior descending coronary arteries and third and fourth order branches of mesenteric arteries and were dissected and kept in ice-cold isolation buffer consisting of (in mM): 134 NaCl, 6 KCl, 1 MgCl2, 2 CaCl2, 10 HEPES, 7 D-glucose, pH 7.4. Isolated arteries were used for arterial diameter measurements within 8 h after dissection. Isolated arteries were cleaned of connective tissue and cannulated on glass micropipettes mounted in a linear alignment single vessel myograph chamber (Living Systems Instrumentation, St. Albans, Vt., USA). For some experiments, the vascular endothelium was functionally ablated by passage of air through the lumen (˜30 s) during the cannulation procedure. After cannulation, the chamber was placed on an inverted microscope and arteries were equilibrated at 37° C. and intravascular pressure of 20 mmHg, maintained with a pressure servo control unit (Living Systems Instrumentation, St. Albans, Vt., USA) under continuous perfusion (3-5 ml·min^−1) of physiological saline solution (PSS) consisting of (in mM): 119 NaCl, 4.7 KCl, 1.2 KH2PO4, 1.2 MgCl2, 7 D-glucose, 24 NaHCO3, 2 CaCl2, maintained at pH 7.35-7.45 via aeration with gas mixture containing 5% CO2 and 20% O2 (balanced with N2). Following an equilibration period (45-60 min), lumenal diameter was continuously monitored and recorded with a charge coupled device (CCD) camera and edge detection software (IonOptix, Milton, Mass., USA). Experiments were performed to examine effects of step-wise increases in intravascular pressure (20-100 mmHg), elevated [K^+]o (via isosmotic replacement of KCl for NaCl), the synthetic thromboxane A2 analogue U46619 (Tocris Bioscience, Minneapolis, Minn., USA), adenosine (Sigma Aldrich, St. Louis, Mo., USA), or L-lactate (Sigma Aldrich, St. Louis, Mo., USA). For some experiments, hypoxic bath conditions were generated by perfusion of 1 mM Na2S2O4-containing PSS aerated with 5% CO2 (balance N2; 0% O2). Bath O2 levels were measured using a dissolved oxygen meter (World Precision Instruments, Sarasota, Fla., USA). At the end of each experiment, the maximum passive diameter was measured in the presence of Ca^2+-free PSS containing the L-type Ca^2+ channel inhibitor nifedipine (1 μM) and adenylyl cyclase activator forskolin (0.5 μM), as described previously. Vasoconstriction is expressed as a decrease in arterial diameter relative to the maximum passive diameter at a given intravascular pressure. Changes in diameter (e.g., vasodilation) are normalized to differences from baseline and maximum passive diameters for each experiment.

[3] = system: coronary arterial myocytes; assay: Perforated whole cell patch clamp of outward K+ current; type: cell-based, mouse
Description: In situ proximity ligation: Arterial myocytes were isolated from coronary and mesenteric arteries using enzymatic digestion procedures, similar to those described previously. Briefly, arteries were incubated in digestion buffer containing (in mM): 140 NaCl, 5 KCl, 2 MgCl2, 10 HEPES, 10 glucose, pH 7.4 at 37° C. for 1 min. […]
Patch clamp electrophysiology: Arterial myocytes were isolated from coronary arteries as described above. […] Total outward K^+ currents (IK) were recorded from coronary arterial myocytes using the perforated whole cell configuration of the patch clamp technique in voltage clamp mode using an Axopatch 200B patch clamp amplifier (Axon Instruments). […] K^+ currents were recorded from each cell in the absence and presence of L-lactate (10 mM) in bath solution with and without psora-4 (500 nM). […] Patch clamp data were analyzed suing Clampfit 9 software (Axon Instruments). IK is expressed as peak currents reached during the period of depolarization normalized by cell capacitance and expressed as pA/pF.

[4] = system: isolated coronary arteries; assay: Hypoxia-induced vasodilation of isolated pressurized coronary arteries; set-up: species or system mouse; conditions: psora-4 500 nM; WT coronary arteries, 60 mmHg, pre-constricted with 100 nM U46619
Description: Arterial diameter measurements: Primary and secondary branches of the left anterior descending coronary arteries and third and fourth order branches of mesenteric arteries and were dissected and kept in ice-cold isolation buffer consisting of (in mM): 134 NaCl, 6 KCl, 1 MgCl2, 2 CaCl2, 10 HEPES, 7 D-glucose, pH 7.4. Isolated arteries were used for arterial diameter measurements within 8 h after dissection. Isolated arteries were cleaned of connective tissue and cannulated on glass micropipettes mounted in a linear alignment single vessel myograph chamber (Living Systems Instrumentation, St. Albans, Vt., USA). […] Following an equilibration period (45-60 min), lumenal diameter was continuously monitored and recorded with a charge coupled device (CCD) camera and edge detection software (IonOptix, Milton, Mass., USA). […] Bath O2 levels were measured using a dissolved oxygen meter (World Precision Instruments, Sarasota, Fla., USA). At the end of each experiment, the maximum passive diameter was measured in the presence of Ca^2+-free PSS containing the L-type Ca^2+ channel inhibitor nifedipine (1 μM) and adenylyl cyclase activator forskolin (0.5 μM), as described previously. Vasoconstriction is expressed as a decrease in arterial diameter relative to the maximum passive diameter at a given intravascular pressure. […]

C[C@H](O)C(=O)O [L-lactate]
vasodilation in response to external L-lactate ([1]; L-lactate 5-20 mM, WT coronary arteries pre-constricted with 100 nM U46619): step-wise vasodilation
L-lactate-induced vasodilation ([1]; coronary arteries isolated from Kvβ2−/− mice): abolished
dilation on application of L-lactate ([2]; L-lactate 5-20 mM, WT mesenteric arteries preconstricted with 100 nM U46619): robust and reversible dilation
L-lactate-mediated vasodilation ([2]; endothelium-denuded mesenteric arteries, 10 mM L-lactate): insensitive to endothelial denudation
L-lactate-mediated vasodilation ([2]; mesenteric arteries constricted with elevated external K+ (60 mM) rather than U46619): abolished
dilatory response to L-lactate ([2]; mesenteric arteries from Kvβ1.1−/− mice vs corresponding WT): not significantly different
vasodilation in response to extracellular L-lactate ([2]; mesenteric arteries from SM22α-rtTA:TRE-Kvβ1 vs single transgenic control mice): significantly blunted vasodilation
vasodilation in response to L-lactate ([2]; mesenteric arteries with loss of Kvβ2): eliminated
outward K+ current density ([3]; 10 mM L-lactate in the bath, 1-3 min): significant increase

Nc1ncnc2c1ncn2[C@@H]1O[C@H](CO)[C@@H](O)[C@H]1O [adenosine]
vasodilation induced by adenosine ([2]; adenosine 1-100 μM, Kvβ1.1−/− or Kvβ2−/− arteries vs corresponding WT): not significantly different

O=c1ccc2c(OCCCCc3ccccc3)c3ccoc3cc2o1 [psora-4]
effect on L-lactate-induced vasodilation ([1]; psora-4 500 nM, L-lactate 5-20 mM, WT coronary arteries): abolished
effect on vasodilation in response to L-lactate ([2]; psora-4 500 nM, WT mesenteric arteries): eliminated
effect on L-lactate-induced increase in outward K+ current density ([3]; psora-4 500 nM, 10 mM L-lactate): abolished
attenuation of hypoxia-induced vasodilation [4]: ~58%
